# From the supplement of paper PMC10307832
# How the values were obtained:
# Assay in all cases: relative viability (nuclei count vs DMSO), 5 days (fraction); higher = more cells survive
# [1] = compound: Cc1nc(NC(=O)N2CCC[C@H]2C(N)=O)sc1-c1ccnc(C(C)(C)C(F)(F)F)c1 [Alpelisib] + O=C(c1cc(Cc2n[nH]c(=O)c3ccccc23)ccc1F)N1CCN(C(=O)C2CC2)CC1 [Olaparib] (partner 8 µM)
# In short: (§1)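 After 5 days of treatment, lung cancer cells in 1536-well plates were fixed and stained in a single step (final 0.05% Triton X-100, 1% formaldehyde, 1 ug/ml Hoechst) and their nuclei counted on 4× images. Treatment had been applied by pin tool the day after seeding as one drug alone or as a fixed anchor-drug dose with five library-drug doses (not always all listed) in √10 steps. Relative viability is the nuclei count of treated wells divided by that of vehicle wells, and values are medians of duplicate plates.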
# [2] = compound: Cc1nc(NC(=O)N2CCC[C@H]2C(N)=O)sc1-c1ccnc(C(C)(C)C(F)(F)F)c1 [Alpelisib] + Nc1nc2[nH]cc(CCc3ccc(C(=O)N[C@@H](CCC(=O)O)C(=O)O)cc3)c2c(=O)[nH]1 [Pemetrexed] (partner 0.2 µM)
# In short: as §1
# [3] = compound: CCCS(=O)(=O)Nc1ccc(F)c(C(=O)c2c[nH]c3ncc(-c4ccc(Cl)cc4)cc23)c1F [Vemurafenib] + CC(C)C[C@H](NC(=O)[C@H](Cc1ccccc1)NC(=O)c1cnccn1)B(O)O [Bortezomib] (partner 0.002 µM)
# In short: as §1
# [4] = compound: CCCS(=O)(=O)Nc1ccc(F)c(C(=O)c2c[nH]c3ncc(-c4ccc(Cl)cc4)cc23)c1F [Vemurafenib] + O=C(CCCCCCC(=O)Nc1ccccc1)NO [Vorinostat] (partner 1 µM)
# In short: as §1
Cell Line,relative viability ([1]; first compound 0.04 µM),relative viability ([1]; first compound 0.1265 µM),relative viability ([1]; first compound 0.4 µM),relative viability ([1]; first compound 1.265 µM),relative viability ([1]; first compound 4 µM),relative viability ([2]; first compound 0.04 µM),relative viability ([2]; first compound 0.1265 µM),relative viability ([2]; first compound 0.4 µM),relative viability ([2]; first compound 1.265 µM),relative viability ([2]; first compound 4 µM),relative viability ([3]; first compound 0.03162 µM),relative viability ([3]; first compound 0.1 µM),relative viability ([3]; first compound 0.3162 µM),relative viability ([3]; first compound 1 µM),relative viability ([4]; first compound 0.03162 µM),relative viability ([4]; first compound 0.1 µM),relative viability ([4]; first compound 0.3162 µM),relative viability ([4]; first compound 1 µM)
NCI-H1915,0.264,0.288,0.303,0.236,0.235,0.498,0.527,0.525,0.49,0.428,0.894,0.995,0.886,0.91,0.468,0.468,0.455,0.478
HOP-62,0.533,0.435,0.532,0.282,0.401,0.342,0.28,0.364,0.26,0.297,0.814,0.868,0.648,1.07,0.515,0.593,0.583,0.484
NCI-H520,0.285,0.298,0.331,0.231,0.272,0.609,0.716,0.707,0.557,0.413,0.46,0.487,0.722,0.454,0.68,0.714,0.718,0.497
COR-L23,0.327,0.338,0.573,0.294,0.253,0.188,0.184,0.215,0.2,0.196,0.925,0.941,0.832,0.912,0.443,0.412,0.373,0.441
H3255,0.571,0.59,0.651,0.538,0.474,0.586,0.614,0.603,0.526,0.507,0.802,,0.612,0.681,0.758,,0.709,0.638
NCI-H1993,1.01,0.868,1.13,0.585,0.735,0.606,0.544,0.571,0.545,0.432,1.02,,1.25,1.03,0.739,,1.02,0.876
SW 1573,0.431,0.455,0.406,0.341,0.311,0.837,0.871,0.812,0.741,0.711,0.896,0.945,1.03,1.07,0.655,0.767,0.473,0.537
NCI-H2085,0.754,0.75,0.794,0.733,0.711,0.848,0.847,0.86,0.865,0.803,1.05,0.91,0.914,0.847,0.703,0.736,0.618,0.968
EPLC-272H,0.936,0.838,0.75,0.393,0.485,0.394,0.363,0.355,0.276,0.238,0.857,0.749,0.812,0.867,0.553,0.4,0.528,0.543
